Like-named read-outs stand apart in the source and are kept apart here.
Key:
[1] = test system: HCC1954 cells (with PI3Kα H1047R mutation); experiment: In vitro inhibition of HCC1954 cell proliferation (CellTiter-Lumi); type: cell-based
Experimental: Assay for In Vitro Inhibition of HCC1954 Cell Proliferation by Compounds of the Present Disclosure
The growth of the cells was evaluated, and the IC50 for the inhibition of cell growth by the compounds was calculated.

[2] = test system: MCF-7 cells (with PI3Kα E545K mutation); experiment: In vitro inhibition of MCF-7 cell proliferation (CellTiter-Lumi); type: cell-based
Procedure, shortened: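 Growth IC50 derived from ATP luminescence (CellTiter-Lumi) after 144 h exposure of MCF-7 cells carrying PI3Kα E545K, plated 2000 cells/well and dosed with serial dilutions one day after seeding.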

[3] = Homo sapiens, HCC1954, 144 h, HCC1954 cells, 144 h, CellTiter-Lumi, class symbols, read-out: Inhibitory activity against HCC1954 cells (IC50), class symbols
[4] = Homo sapiens, MCF7, 144 h, class symbols, read-out: Inhibitory activity against MCF-7 cells (IC50), class symbols
[5] = Homo sapiens, HCC1954, 144 h, read-out: Inhibitory activity against HCC1954 cells (IC50), class symbols

Compound	IC50 ([1]; HCC1954 cells, 144 h, CellTiter-Lumi, numeric values, read-out: Inhibitory activity against HCC1954 cells (IC50)) [nM]	IC50 ([2]; 144 h, numeric values, read-out: Inhibitory activity against MCF-7 cells (IC50)) [nM]	IC50 [1, 3] [nM]	IC50 [2, 4] [nM]	IC50 [1, 5] [nM]
CC(C)(C=C(C#N)C(=O)Nc1ccc(N2CC(N3CCN(c4ccc5c(c4)-c4nc(N6C(=O)OC[C@H]6C(F)F)cn4CCO5)CC3)C2)cc1)NC(=O)OC(C)(C)C [Compound 324B]	6.2	2.6	–	–	–
CC(=O)NC(C)(C)C=C(C#N)C(=O)Nc1ccc(N2CC(N3CCN(c4ccc5c(c4)-c4nc(N6C(=O)OC[C@H]6C(F)F)cn4CCO5)CC3)C2)cc1 [Compound 325]	–	–	< 50	< 50	–
CC(C)(C)OC(=O)NC1(C=C(C#N)C(=O)Nc2ccc(N3CC(N4CCN(c5ccc6c(c5)-c5nc(N7C(=O)OC[C@H]7C(F)F)cn5CCO6)CC4)C3)cc2)CC1 [Compound 326]	–	–	< 50	< 50	–
CC(C)(C=C(C#N)C(=O)Nc1ccc(N2CC(N3CCN(c4ccc5c(c4)-c4nc(N6C(=O)OC[C@H]6C(F)F)cn4CCO5)CC3)C2)cc1)NS(C)(=O)=O [Compound 327]	–	–	< 50	< 50	–
CC(=O)OCNC(C)(C)C=C(C#N)C(=O)Nc1ccc(N2CC(N3CCN(c4ccc5c(c4)-c4nc(N6C(=O)OC[C@H]6C(F)F)cn4CCO5)CC3)C2)cc1 [Compound 328]	–	–	< 50	< 50	–
CC(C)(C=C(C#N)C(=O)Nc1ccc(N2CC(N3CCN(c4ccc5c(c4)-c4nc(N6C(=O)OC[C@H]6C(F)F)cn4CCO5)CC3)C2)cc1)NCOC(=O)C(C)(C)C [Compound 329]	–	–	< 50	< 50	–
CCOP(=O)(OCC)OCNC(C)(C)C=C(C#N)C(=O)Nc1ccc(N2CC(N3CCN(c4ccc5c(c4)-c4nc(N6C(=O)OC[C@H]6C(F)F)cn4CCO5)CC3)C2)cc1 [Compound 331]	–	–	–	< 50	< 50
CCOP(=O)(NC(C)(C)C=C(C#N)C(=O)Nc1ccc(N2CC(N3CCN(c4ccc5c(c4)-c4nc(N6C(=O)OC[C@H]6C(F)F)cn4CCO5)CC3)C2)cc1)OCC [Compound 332]	–	–	–	< 50	< 50
CC(C)(C=C(C#N)C(=O)Nc1ccc(N2CC(N3CCN(c4ccc5c(c4)-c4nc(N6C(=O)OC[C@H]6C(F)F)cn4CCO5)CC3)C2)cc1)NCOP(=O)(OCOC(=O)C(C)(C)C)OCOC(=O)C(C)(C)C [Compound 333]	–	–	< 50	< 50	–
CC(C)OC(=O)OCOP(=O)(OCNC(C)(C)C=C(C#N)C(=O)Nc1ccc(N2CC(N3CCN(c4ccc5c(c4)-c4nc(N6C(=O)OC[C@H]6C(F)F)cn4CCO5)CC3)C2)cc1)OCOC(=O)OC(C)C [Compound 334]	–	–	< 50	< 50	–
CN(C(=O)OC(C)(C)C)C(C)(C)C=C(C#N)C(=O)Nc1ccc(N2CC(N3CCN(c4ccc5c(c4)-c4nc(N6C(=O)OC[C@H]6C(F)F)cn4CCO5)CC3)C2)cc1 [Compound 335]	–	–	< 50	< 50	–
Cc1nc(-c2cn3c(n2)-c2cc(N4CCN(C5CN(c6ccc(NC(=O)C(C#N)=CC(C)(C)N)cc6)C5)CC4)ccc2OCC3)n(C(C)C)n1 [Compound 336]	–	–	< 50	< 50	–
CNC(C)(C)C=C(C#N)C(=O)Nc1ccc(N2CC(N3CCN(c4ccc5c(c4)-c4nc(-c6nc(C)nn6C(C)C)cn4CCO5)CC3)C2)cc1 [Compound 337]	–	–	< 50	< 50	–
Cc1nc(-c2cn3c(n2)-c2cc(N4CCN(C5CN(c6ccc(NC(=O)C(C#N)=CC(C)(C)NC(=O)OC(C)(C)C)cc6)C5)CC4)ccc2OCC3)n(C(C)C)n1 [Compound 338]	–	–	< 50	< 50	–
Cc1nc(-c2cn3c(n2)-c2cc(N4CCN(C5CN(c6ccc(NC(=O)C(C#N)=CC(C)(C)N(C)C7COC7)cc6)C5)CC4)ccc2OCC3)n(C(C)C)n1 [Compound 339]	–	–	< 50	< 50	–
Cc1nc(-c2cn3c(n2)-c2cc(N4CCN(C5CN(c6ccc(NC(=O)C(C#N)=CC(C)(C)C)cc6)C5)CC4)ccc2OCC3)n(C(C)C)n1 [Compound 340]	–	–	< 50	< 50	–
CCOP(=O)(OCC)OCOC(C)(C)C=C(C#N)C(=O)Nc1ccc(N2CC(N3CCN(c4ccc5c(c4)-c4nc(N6C(=O)OC[C@H]6C(F)F)cn4CCO5)CC3)C2)cc1 [Compound 341]	–	–	–	< 50	< 50
CCOP(=O)(OCC)OC(C)(C)C=C(C#N)C(=O)Nc1ccc(N2CC(N3CCN(c4ccc5c(c4)-c4nc(N6C(=O)OC[C@H]6C(F)F)cn4CCO5)CC3)C2)cc1 [Compound 342]	–	–	–	< 50	< 50
CC(C)(C=C(C#N)C(=O)Nc1ccc(N2CC(N3CCN(c4ccc5c(c4)-c4nc(N6C(=O)OC[C@H]6C(F)F)cn4CCO5)CC3)C2)cc1)OCOP(=O)(OCOC(=O)C(C)(C)C)OCOC(=O)C(C)(C)C [Compound 343]	–	–	< 50	< 50	–
CC(C)OC(=O)OCOP(=O)(OCOC(=O)OC(C)C)OCOC(C)(C)C=C(C#N)C(=O)Nc1ccc(N2CC(N3CCN(c4ccc5c(c4)-c4nc(N6C(=O)OC[C@H]6C(F)F)cn4CCO5)CC3)C2)cc1 [Compound 344]	–	–	< 50	< 50	–
